# Reference: patent US20210355418A1, “ELECTRODE HAVING NANO STRUCTURE AT TIP” (Ion Chat Research Corporate, priority 2018, published 2021)
# Legend:
# Type in all cases: cell-based
# [1] = tested on: NG108-15 neurons; assay: Action potential recording with 3-electrode MagEle; conditions: 10 uM; cells differentiated by 2% FBS, 10 μM Forskolin
# Text: When manufacturing multiple electrodes using MagEle, two types of magnets, a fixed magnet, and an electrode magnet, are used. Wrap the fixed electrodes in a non-conductive material such as parafilm, and attach strip-shaped electrodes made of 2 to 4 pieces of aluminum foil.
# This aluminum foil electrode is fixed by magnetic force to the electrode magnet from below, the side surface of the electrode magnet other than facing the cells is wrapped with a non-conductive material such as parafilm to insulate it, and “Clip on ground” is attached above the fixed magnet. A holder for fixing the manipulator is attached (FIG. 20).
# Recording was performed from NG108-15 neurons differentiated by 2% FBS, 10 μM Forskolin treatment using the 3-electrode MagEle prepared in (8-1) above (FIG. 22).
# [2] = tested on: NG108-15 cells; assay: Intracellular potential recording of cultured nerve cells with C-M magnet electrode; conditions: final external fluid concentration 800 μM; 2 days neural differentiation
# Experimental: NG108-15 cells were used for the purpose of showing that recording is possible from cultured nerve cells. NG108-15 cells (neuroblastoma-glioma hybrid cells) were cultured in a culture medium containing DMEM (Sigma-Aldrich), HAT supplement (Thermofisher) and 10% FBS (Biowest). NG108-15 was seeded on a cover glass that was coated with 0.1% Polyethyleneimine (pH8.4, 150 mM Sodium Tetra-Borate (Wako)), and cultured in the culture medium, in which FBS concentration was reduced to 5% from the above culture medium, and the nerve differentiation was induced by adding 500 μM Ibuprofen (Wako). […]
# PEI and PEG-gold coated magnetic nanoparticles were mixed and left at room temperature for three hours. This mixed solution is moved to the cell-adhesive surface of the neodymium magnet and left for additional fifteen minutes to magnetically bond the gold nanoparticles to the neodymium magnet electrode. […]
# Spontaneous action potentials were recorded by placing C-M electrode on cells seeded on coverslips. […]
# In addition to the spontaneous action potential, the following experiment was conducted to confirm whether the neuronal activity by the neurotransmitter glutamate can be recorded. […] Glutamic acid was administered to the extracellular fluid (final external fluid concentration 800 μM), and the response mediated by glutamate receptors was recorded. […]
# [3] = tested on: differentiated NG108-15 cells; assay: Intracellular potential measurement by patch clamp method; conditions: 10 mM
# Experimental: More specifically, a solution containing 2% H.A.T. in DMEM (Sigma-Aldrich) containing 10% FBS (Biowest) was used as the culture medium. According to the literature, in order to differentiate NG108-15 cells into nerve-like cells, FBS in the culture medium is reduced to 2% and the intracellular cAMP concentration is increased by applying the membrane-permeable cAMP (Dibutyryl-cAMP), but in this protocol, it was replaced with 10 uM forskolin. The culture medium was changed at intervals of 2 to 3 days.
# This experiment verified that the intracellular potential was induced by glutamate in NG108-15 differentiated cells adjusted in (1-1) using the conventional patch-clamp method.
# More specifically, using a glass pipette filled with an intracellular electrolyte solution containing 10 mM glutamate to differentiated NG108-15 cells, the cell membranes were tightly adhered and the glass pipette and cells were electrically integrated.
# [4] = tested on: differentiated NG108-15 cells; assay: Intracellular recording with integrated electrode having nano-protrusion structure at the tip, pressed by manipulator; conditions: 10 mM, integrated electrode fixed with manipulator
# Experimental: More specifically, 0.5 μl PEI (10 mg/ml), 20 ul gold-coated magnetic nanoparticles (NITmagold Cit manufactured by na noimmunotech), and 5 μl of 5 times the concentration HBPS (final concentration of calcium and magnesium is 1 mM) were mixed. It was kept at room temperature for 30 minutes or more. The recording surface of the magnet electrode is fixed upward, the mixed solution is dropped onto the recording surface, adsorbed by magnetic force, and the solution is evaporated at room temperature (Magele).
# As shown in the middle drawing of FIG. 3, the entire side surface of the electrode was inserted into a silicon tube (Tyg on) of an insulator to cover it, and the area in contact with the extracellular fluid was further covered with aluminum foil as a ground material. Through the above process, the integrated electrode of the present invention was produced.
# The integrated electrode was pressed onto the differentiated NG108-15 cells using a manipulator (FIG. 2), and the integrated electrode was fixed in a state where the nano-protrusion at the tip penetrated the cell membrane and the cells were not crushed. […]
# After activating the differentiated NG108-15 cells with 10 mM glutamate, the intracellular potential was measured with an integrated electrode fixed with a manipulator.
# [5] = tested on: cardiomyocyte-like cells (iCell Cardiomyocyte2); assay: Action potential recording of cardiomyocyte-like cells on conductive glass, charge amplifier (CHAMPL) mode; conditions: final concentration 100 μM in physiological saline, room temperature
# Experimental: Experiments were conducted using myocardial-like cells (iCell Cardiomyocyte2, CDI) as a typical example of cells with low adhesion efficiency to the surface of conductive glass. In order to improve the adhesiveness, the cells were cultured on the surface of conductive glass coated with collagen (Collagen) in a grid pattern in advance. Gold-coated magnetic nanoparticles were introduced into myocardial-like cells and penetrated the cell membrane by a magnetic field. Sodium channels were activated by sodium channel openers such as veratridine and the resulting action potentials were recorded. This experiment was performed at room temperature. […]
# Next, using SLO, gold-coated magnetic nanoparticles were introduced into the cell. […] Two days later, the culture medium was replaced with physiological saline before the experiment, and the action potentials of the cells were recorded at room temperature using the charge amplifier mode (ChargeAmpLifier (CHAMPL) mode) (FIG. 10).
# However, since the spontaneous action potential could not be observed in this sample (data not shown), Veratridine (Sigma-Aldrich), which acts as a sodium channel opener, was administered to a final concentration of 100 μM in physiological saline. […] Slow depolarization was observed 40 seconds after Veratridine administration, followed by spontaneous action potentials recorded (FIG. 11).
compound,measurement,setting,value
CC(=O)OCC[N+](C)(C)C [Ach],activity of nerve cell groups,[1],activity of all nerve cell groups was increased
"N[C@@H](CCC(=O)O)C(=O)O [Glutamate, Glutamic acid]",membrane potential response mediated by glutamate receptors,[2],depolarization (upward change) response of the membrane potential
same,time for membrane potential change to return to baseline,[2],about 90 seconds
same,intracellular potential response,[3],induced a slow depolarization and action potentials
same,intracellular potential response,[4],Action potentials and slow depolarization were recorded
COc1ccc(C(=O)O[C@H]2CC[C@@]3(C)[C@@H]4CC[C@H]5[C@]6(O)C[C@H](O)[C@@]7(O)[C@@H](CN8C[C@@H](C)CC[C@H]8[C@@]7(C)O)[C@]6(O)C[C@@]53O[C@]24O)cc1OC [Veratridine],time to slow depolarization after administration,[5],40 s
